We go through three molecules from US12655131B2, “Pyrazinecarboxamide analog compounds for use in treating cancer” (NOVAPANO, LLC, priority 2019, dated 2026).

A short description of data set [1]: Microsome stability, mouse liver microsomes. The following applies: NADPH, 37 °C, pH 7.4, read-out: mLM CLint (μg/min/mg). It counts as in vitro ADME. Here is the method:
(§1) In a 96 deep well plate, 2.5 μL of 20 μM of each test compound in potassium phosphate buffer (pH 7,4) with 2% 1:9 DMSO:acetonitrile were added to 5 μL of 5 mg/mL microsomes (human liver microsomes (hLM), rat liver microsomes (rLM), or mouse liver microsomes (mLM)) and 37.5 μL of 100 mM prewarmed phosphate buffer (pH 7.4). Time point 0 (T0) samples were immediately quenched with 200 μL of chilled acetonitrile containing 50 ng/mL of internal standard. 5 4, of 10 mM NADPH was added to all other samples to start the reaction. The plate was incubated in a reciprocating water bath at 37 ° C. on 50 rpm for the duration of the assay. The remaining samples were quenched with 200 μL of chilled acetonitrile containing 50 ng/mL of internal standard at various timepoints. The samples were analyzed by LC-MS/MS (Sciex API 4500 QTrap). The % remaining, terminal elimination rate constant (K), half-life (t1/2), and intrinsic clearance (CLint) were calculated.
A general note: Microsomes from liver hold many membrane-bound enzymes, among them those of drug oxidation.

The test system of data set [2] is HCT 116 colorectal carcinoma cells. Put plainly: Cell proliferation assay (resazurin) in HCT 116 cells. In kind it is cell-based. The following applies: Homo sapiens, 72 hr compound incubation, inhibition of proliferation. The method, then:
(§2) HCT 116 colorectal carcinoma cells (ECACC/Sigma-Aldrich #91091005) were seeded in medium (McCoy's 5a+10% FBS) at a cell count of 1500 cells per 100 μL per well in a 96 well edge plate (ThermoFisher #167425). Cells were cultured at 37° C. for 24 hr in 5% CO2 environment (culture conditions) in a Nuaire incubator (humidified). Serially diluted test compounds (100 μL) within the desired testing concentration range (e.g., 0.014-30 μM) were added to the culture plate and the cells were further incubated in culture conditions for 72 hr. The experiment was terminated at the designated incubation time by replacing the medium with 100 μL, of 1 mM resazurin (Sigma-Aldrich #R7017) prepared in culture medium, and the plates were further incubated in culture conditions for 4-6 hr. Fluorescence was recorded using a multimodal plate reader (Biotek Synergy Neo) at an excitation wavelength of 535 nm and emission wavelength of 590 nm to obtain relative fluorescence units.
(§3) Data were analyzed as follows: the background fluorescence (blank containing only medium) value was subtracted from each reading and normalized with the vehicle control ([…]treated cells) to obtain percent survival/proliferation. Percent survival was subtracted from 100 to get the percent inhibition of proliferation which was used to calculate IC50 values.
A general note: The colour change of resazurin is a common sign of viable cells or microbes.

The nature of data set [3]: Microsome stability, human liver microsomes. In kind it is in vitro ADME. The following applies: NADPH, 37 °C, pH 7.4, read-out: hLM CLint (μg/min/mg). Here is the method: as §1
Data set [4] in a line: Microsome stability, rat liver microsomes. In kind it is in vitro ADME. The following applies: NADPH, 37 °C, pH 7.4, read-out: rLM CLint (μg/min/mg). Here is the method: as §1
The subject of data set [5] is MIA PaCa-2 human pancreatic carcinoma cells. Put plainly: Cell proliferation assay (resazurin) in MIA PaCa-2 cells. In kind it is cell-based. The following applies: 96 hr compound incubation, inhibition of proliferation. Here is the method:
as §2, §3
Testing in MIA PaCa-2 human pancreatic carcinoma cells (ATCC® CRL-1420™) was done identically, except that the medium used was DMFM+10% FBS+2.5% horse serum, the cells were seeded at a cell count of 3000 cells per 100 μL per well and the test compound incubation time was 72 or 96 hr. The potency of compounds in other cell lines may be determined in an analogous manner.

Usually IC50 stands for the point on the concentration scale where inhibition reaches its midpoint.

Consider `N/C(=N\C(=O)c1nc(Cl)c(NCc2ccc(I)cc2)nc1N)NCCCOc1ccc(Cl)cc1` [Compound 52, 3-amino-4-(amino(3-(4-chlorophenoxy)propylamino)methylene)-6-chloro-5-(4-iodobenzylamino)pyrazine-2-carboxamide], for which the values for the microsomal CLint at 1 µM in data set [1], in data set [3] and in data set [4] were 81 µL/min/mg, 20 µL/min/mg and 49 µL/min/mg, respectively. The figures for the IC50 in data set [2] and in data set [5] were 1.33 µM and 2.92 µM, respectively.
For `N/C(=N\C(=O)c1nc(Cl)c(NCc2ccc(I)cc2)nc1N)NCC1CCN(CCc2ccccc2)CC1` [Compound 51, 3-amino-N-(amino(((1-phenethylpiperidin-1-yl)methyl)amino)methylene)-6-chloro-5-((4-iodobenzyl)amino)pyrazine-2-carboxamide], in that order: 67 µL/min/mg, 52 µL/min/mg, 29 µL/min/mg, 0.69 µM and 1.9 µM.
For `Nc1nc(NCc2ccc(I)cc2)c(Cl)nc1C(=O)NCCN1CCN(Cc2ccccc2)CC1` [Compound 1, 3-amino-N-(2-(4-benzylpiperazin-1-yl)ethyl)-6-chloro-5-(4-iodobenzylamino) pyrazine-2-carboxamide], in that order: 176 µL/min/mg, 258 µL/min/mg, 201 µL/min/mg, 16.3 µM and 30.9 µM.
